Tested on: perfused rat stomach
Experiment: antisecretory activity in the perfused rat stomach (inhibition of histamine- or pentagastrin-stimulated acid secretion)
Format: in vivo
Conditions: iv, amount required to inhibit the histamine- or pentagastrin-stimulated secretion by 50 %, two to four rats per determination, read-out: ID50 (μmoles/kg) Rat perfused stomach i.v.
Method: Compounds of this invention were tested for […]- tory activity in the perfused rat stomach. The method of Gosh and Schild, Brit. […] After the secretion plateau was reached, the test compound was administered i.v. and the amount of comound required to inhibit the stimulated secretion by 50 % was determined. Two to four rats were used for each determination. [drawing 17]

`CN(C)C1=NS(=O)(=O)N=C(NCCSCc2csc(N=C(N)N)n2)N1C` [-N(CH3)2] gave an ED50 of 0.095 µmol/kg.
For `CN1C(N)=NS(=O)(=O)N=C1NCCSCc1csc(N=C(N)N)n1` [-NH2, 3-N-[2-[(2-Guanidino-4-thiazolyl)methylthio]-ethyl]-amino-4-methyl-5-amino-1,2,4,6-thiatriazine-1,1-dioxide], the ED50 was 0.15 µmol/kg.
`C#CCNC1=NS(=O)(=O)N=C(NCCSCc2csc(N=C(N)N)n2)N1C` [-NHCH2C≡CH] gave an ED50 of 0.12 µmol/kg.
Molecule `CN1C(NC#N)=NS(=O)(=O)N=C1NCCSCc1csc(N=C(N)N)n1` [-NHCN] has an ED50 of 0.34 µmol/kg.
Molecule `CN/C(=N/CCSCc1nc[nH]c1C)NC#N` [Cimetidine, reference compound] has an ED50 of 10.8 µmol/kg.
`CC(C)NC1=NS(=O)(=O)N=C(NCCSCc2csc(N=C(N)N)n2)N1C` [-NH-CH(CH3)2] gave an ED50 of 0.28 µmol/kg.
